Article PMC9237417, “HupZ, a Unique Heme-Binding Protein, Enhances Group A Streptococcus Fitness During Mucosal Colonization” (Frontiers in Cellular and Infection Microbiology, 2022)

How the values were obtained:
MBP-HupZ = target: T1, MBP-HupZ (Streptococcus pyogenes, UniProt Q9A0B9); experiment: UV-VIS Soret shift of heme-loaded protein; format: binding; settings: holo protein (heme b bound); 1.6 mM imidazole as axial ligand of the heme iron; pH 7.4
T1 construct: gene SPy_0844; N-terminal MBP fusion kept (pKV135); E. coli BL21(DE3); monomer on native PAGE
T1 sequence (Q9A0B9 entry or part of it): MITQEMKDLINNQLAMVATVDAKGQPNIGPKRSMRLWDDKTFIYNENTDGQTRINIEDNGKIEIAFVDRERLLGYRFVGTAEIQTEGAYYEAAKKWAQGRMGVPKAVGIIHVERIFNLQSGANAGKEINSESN

tag-less HupZ = target: T2, tag-less HupZ (Streptococcus pyogenes, UniProt Q9A0B9); experiment: UV-VIS Soret shift of heme-loaded protein; format: binding; settings: holo protein (heme b bound); 1.6 mM imidazole as axial ligand of the heme iron; pH 7.4
T2 construct: gene SPy_0844; full-length HupZ from His-MBP-HupZ, tag cut by TEV protease leaving a serine residue; expressed in E. coli; 15 kD on SDS-PAGE
T2 sequence (Q9A0B9 entry or part of it): as above

In the case of `c1c[nH]cn1` [imidazole], the “UV-VIS Soret shift of heme-loaded protein” value (MBP-HupZ) is reported as “exogenous imidazole can coordinate the iron in holo tag-less and MBP-HupZ” and the “UV-VIS Soret shift of heme-loaded protein” value (tag-less HupZ) is reported as “exogenous imidazole can coordinate the iron in holo tag-less and MBP-HupZ”.
